# Read-outs that look alike come from different tables or passages of the source.
# Assays:
# B-16 malignant melanoma = B-16 malignant melanoma in C57BL/6 mice, tumor growth after intraperitoneal injection; type: in vivo
# Procedure: The compounds were tested by intraperitoneal injections of suspensions of the compounds in an aqueous solution of polyvinyl pyrrolidone.
# Mice with malignant melanomas were injected with 20 mg or 40 mg diflubenzuron in suspension or with the suspension medium (blank).
# Finally compound 2) was given in doses of 20 mg each on days 0, 1 and 2.
# Animals with growing tumors were treated with 100 mg of diflubenzuron alone (suspended in an aqueous solution of polyvinylpyrrolidone) or in combination with a metabolic inhibitor or a metabolic inducer according to the schedule given in Table XI.
# melanoma B-16 cells = test: Malignant melanoma B-16 cells in vitro, cell count by Coulter Counter; type: cell-based; conditions: Mus musculus; for activity at 200 µg/mL / activity at 300 µg/mL / activity at 50 µg/mL: B16, 48 h; for activity at 200 µg/mL: 200 ug/ml; for activity at 500 µg/mL / activity at 5000 µg/mL: B16, 20 hours incubation, cells counted at 48 hours; for activity at 500 µg/mL: read-out: Percentage of controll cell growth when tested in an amount of 5 x 10^2 µg/ml; for activity at 5000 µg/mL: read-out: Percentage of controll cell growth when tested in an amount of 5 x 10^3 µg/ml; for activity at 300 µg/mL: 300 ug/ml; for activity at 50 µg/mL: 50 ug/ml
# Procedure: Cells of malignant melanomas B-16 grow as a monolayer. The doubling time of this type of cells in a cell--culture is 12 to 16 hours. For this experiment 6 multi-well tissue culture plates having a flat bottom with a surface area of 6 cm^2 appeared to be suitable and have been used.
# On day 0 a quantity of melanoma B-16 cells were brought on the cell-culture plates.
# The test compounds were sonicated and then incubated without cells for 3 hours at 37°C.
# Then the compound to be tested was administered to the plates with melanoma B-16 cells in the desired quantity (each test was done in triplicate). Thereafter the plates were incubated in a C02-incubator for 20 hours at 37°C. Then the incubation was stopped by removing the culture medium containing the test compound, the cells were washed twice, and fresh culture medium was added.
# 48 Hours after starting the incubation step the number of cells on each plate was measured by means of a microcell Coulter Counter. The results so obtained have been expressed as "percentage of controll cell growth".
# In the above experiment the compounds to be tested have been used in the form of a suspension. Since it is not quite clear how much of the active compounds is dissolved, the above results cannot be compared very well.
# Therefore a number of compounds has been dissolved in ethanol.
# [1] = dissolved in ethanol, read-out: Percentage of controll cell growth (solution)
# [2] = suspension, read-out: Percentage of controll cell growth (suspension)
# [3] = 20 mg each on days 0, 1, 2, 3 and 4
# [4] = 100 mg total, 20 mg each on day 0, 1, 2, 3 and 4
# [5] = 10 mg each on days 0, 1, 2, 3 and 4
smiles,measurement,setting,value
"Cc1ccc2cc3c(ccc4ccccc43)c3c2c1CC3 [3-methylcholanthrene, 3-Methylcholanthrene, reference compound]",% change in tumor mass day 1,"B-16 malignant melanoma; mouse, in vivo",122 (6) %
same,% change in tumor mass day 2,"B-16 malignant melanoma; mouse, in vivo",223 (6) %
same,% change in tumor mass day 3,"B-16 malignant melanoma; mouse, in vivo",364 (6) %
same,% change in tumor mass day 4,"B-16 malignant melanoma; mouse, in vivo",417 (6) %
same,% change in tumor mass day 5,"B-16 malignant melanoma; mouse, in vivo",363 (6) %
"O=C(NC(=O)c1c(F)cccc1F)Nc1cc(Cl)c(Oc2ncc(C(F)(F)F)cc2Cl)c(Cl)c1 [Compound 2, 1-(2,6-difluorobenzoyl)-3-[3,5-dichloro-4-(3-chloro-5--trifluoromethyl-2-pyridyloxy)phenyl]urea]",Mean tumor Mass Day 1,"B-16 malignant melanoma; 20 mg each on days 0, 1 and 2",191
same,activity at 200 µg/mL,melanoma B-16 cells; [1],72%
same,activity at 200 µg/mL,melanoma B-16 cells; [2],114%
"O=C(NC(=O)c1c(F)cccc1F)Nc1ccc(Oc2ccc(Cl)cc2)c(Cl)c1 [Compound 3, 1-(2,6-difluorobenzoyl)-3-[3-chloro-4-(4-chlorophenoxy)phenyl]urea]",Mean tumor Mass Day 1,B-16 malignant melanoma; [3],127
same,activity at 500 µg/mL,melanoma B-16 cells; suspension,33%
same,activity at 5000 µg/mL,melanoma B-16 cells; suspension,8%
"O=C(NC(=O)c1ccccc1Cl)Nc1ccc(Cl)cc1 [Compound 5, 1-(2-chlorobenzoyl)-3-(4-chlorophenyl)urea]",Mean tumor Mass Day 1,B-16 malignant melanoma; [3],198
same,activity at 500 µg/mL,melanoma B-16 cells; suspension,98%
same,activity at 5000 µg/mL,melanoma B-16 cells; suspension,86%
"O=C(NC(=O)c1ccccc1Cl)Nc1ccc(OC(F)(F)F)cc1 [Compound 6, l-(2-chlorobenzoyl)-3-(4-trifluoromethoxyphenyl)urea]",Mean tumor Mass Day 1,B-16 malignant melanoma; [3],229
same,activity at 300 µg/mL,melanoma B-16 cells; [1],95%
same,activity at 300 µg/mL,melanoma B-16 cells; [2],88%
O=C(NC(=O)c1c(F)cccc1F)Nc1ccc(Cl)cc1O [Compound 7],% change in tumor mass day 1,B-16 malignant melanoma; [4],-23.4 (12) %
same,% change in tumor mass day 2,B-16 malignant melanoma; [4],-17.4 (12) %
same,% change in tumor mass day 3,B-16 malignant melanoma; [4],25.1 (12) %
same,% change in tumor mass day 4,B-16 malignant melanoma; [4],74.7 (10) %
same,% change in tumor mass day 5,B-16 malignant melanoma; [4],127 (10) %
same,% change in tumor mass on day 11,B-16 malignant melanoma; [4],699 (10) %
same,antitumor effect compared with parent compound diflubenzuron (in words),B-16 malignant melanoma; [4],more effective
same,activity at 50 µg/mL,melanoma B-16 cells; [1],39%
same,activity at 50 µg/mL,melanoma B-16 cells; [2],103%
same,activity at 300 µg/mL,melanoma B-16 cells; [1],0%
same,activity at 300 µg/mL,melanoma B-16 cells; [2],103%
"O=C(NC(=O)c1c(F)cccc1F)Nc1ccc(Cl)c(O)c1 [Compound 8, 1-(2,6-difluorobenzoyl)-3-(4-chloro-3-hydroxyphenyl)urea]",% change in tumor mass day 1,B-16 malignant melanoma; [4],39.5 (12) %
same,% change in tumor mass day 2,B-16 malignant melanoma; [4],52.4 (12) %
same,% change in tumor mass day 3,B-16 malignant melanoma; [4],91.2 (12) %
same,% change in tumor mass day 4,B-16 malignant melanoma; [4],149 (12) %
same,% change in tumor mass day 5,B-16 malignant melanoma; [4],223 (12) %
same,% change in tumor mass on day 11,B-16 malignant melanoma; [4],930 (12) %
same,antitumor effect compared with parent compound diflubenzuron (in words),B-16 malignant melanoma; [4],not active at all
same,activity at 300 µg/mL,melanoma B-16 cells; [1],0%
same,activity at 300 µg/mL,melanoma B-16 cells; [2],63%
same,activity at 500 µg/mL,melanoma B-16 cells; suspension,51%
same,activity at 5000 µg/mL,melanoma B-16 cells; suspension,53%
"O=C(NC(=O)c1ccccc1Cl)Nc1ccc(OC(F)(F)F)cc1O [Compound 9, 1-(2-chlorobenzoyl)-3-(2-hydroxy-4-trifluoromethoxyphenyl)urea]",activity at 500 µg/mL,melanoma B-16 cells; suspension,100%
same,activity at 5000 µg/mL,melanoma B-16 cells; suspension,70%
"N#Cc1ccc(NC(=O)NC(=O)c2c(F)cccc2F)cc1 [Compound 10, l-(2,6-difluorobenzoyl)-3-(4-cyanophenyl)urea]",Mean tumor Mass Day 1,B-16 malignant melanoma; [3],183
O=C(NC(=O)c1c(F)cccc1F)Nc1ccc(OC(F)(F)C(F)C(F)(F)F)cc1 (stereo not shown) [Compound 11],Mean tumor Mass Day 1,B-16 malignant melanoma; [3],193
"O=C(NC(=O)c1c(F)cccc1F)Nc1ccc(O)cc1 [Compound 12, 1-(2,6-difluorobenzoyl)-3-(4 :aydroxyphenyl)urea]",Mean tumor Mass Day 1,B-16 malignant melanoma; [3],148
"O=C(NC(=O)c1c(F)cccc1F)Nc1ccc(C2CCCCC2)cc1 [Compound 13, l-(2,6-difluorobenzoyl)-3-(4-cyclohexylphenyl)urea]",Mean tumor Mass Day 1,B-16 malignant melanoma; [5],205
"O=C(NC(=O)c1c(F)cccc1F)Nc1ccc(Cl)c(Cl)c1 [Compound 15, 1-(2,6-difluorobenzoyl)-3-(3,4-dichlorophenyl)urea]",Mean tumor Mass Day 1,B-16 malignant melanoma; [3],151
"O=C(NC(=O)c1c(Cl)cccc1Cl)Nc1ccc(Cl)cc1 [Compound 17, 1-(2,6-dichlorobenzoyl)-3-(4-chlorophenyl)urea]",Mean tumor Mass Day 1,B-16 malignant melanoma; [5],347
"O=C(NC(=O)c1c(Cl)cccc1Cl)Nc1ccc(C(F)(F)F)cc1 [Compound 18, 1-(2,6-dichlorobenzoyl)-3-(4-trifluoromethylphenyl)urea]",Mean tumor Mass Day 1,B-16 malignant melanoma; [5],314
"O=C(NC(=O)c1ccccc1)Nc1ccc(Cl)cc1 [Compound 19, 1-benzoyl-3-(4-chlorophenyl)urea]",Mean tumor Mass Day 1,B-16 malignant melanoma; [3],159
"O=C(NC(=O)c1c(F)cccc1F)Nc1ccc(C(F)(F)F)cc1O [Compound 20, 1-(2,6-difluorobenzoyl)-3-(2-hydroxy-4-trifluoromethylphenyl)urea]",activity at 500 µg/mL,melanoma B-16 cells; suspension,91%
same,activity at 5000 µg/mL,melanoma B-16 cells; suspension,81%
"O=C(NC(=O)c1ccccc1Cl)Nc1ccc(C(F)(F)F)cc1O [Compound 21, 1-(2-chlorobenzoyl)-3-(2-hydroxy-4-trifluoromethylphenyl)urea]",activity at 300 µg/mL,melanoma B-16 cells; [1],43%
same,activity at 300 µg/mL,melanoma B-16 cells; [2],50%
same,activity at 500 µg/mL,melanoma B-16 cells; suspension,101%
same,activity at 5000 µg/mL,melanoma B-16 cells; suspension,71%

# — patent publication EP0107214A2, “Pharmaceutical compositions containing benzoyl-phenyl ureas with anti-tumour activity” (DUPHAR INTERNATIONAL RESEARCH B.V, priority 1982, dated 1984)
